# Assay results: patent publication US20260241041A1, “FLUORESCENCE IMAGING REAGENT FOR LIPID DROPLETS IN TISSUES AND CELLS” (NATIONAL UNIVERSITY CORPORATION GUNMA UNIVERSITY, priority 2021, published 2026)
# Columns and labels:
# [1] = green fluorescence; cited from earlier work
# [2] = Solubility / precipitation in physiological saline; format: physicochemical
# Protocol: (§1) Fluorescence imaging of lipid droplets in a tissue, and of an adipose tissue, using DBC30, DBC30-Bu, or DBC30-Ph is described below. Since the DBC30 series has remarkably low solubility in water (physiological saline), they cannot be easily directly dissolved. […] Therefore, they cannot be administered to mice. In view of this, the 5 mM stock solution was added (at a volume ratio of 10%) to physiological saline supplemented with 10% bovine serum albumin. […] Regarding administration of MNs-NB, a stock solution in DMSO is directly administered to mice. Since administration of DMSO may cause death of mice from shock, the administration method in the present invention is thought to be a safer method. Here, 100 to 200 μL of 500 μM solution (50 to 100 nmol) was administered to the tail vein of mice under anesthesia, and a fluorescence imaging experiment was carried out. In the present experiment, a microscope capable of acquiring fluorescence lifetime images as well as fluorescence intensity images (FLIM: fluorescence lifetime imaging microscope) was used.
# [3] = test system: lipid droplets in HeLa cells; assay: Fluorescence imaging of lipid droplets in cultured cells (luminescence intensity vs Lipi-Blue); format: cell-based; settings: 400 μM oleic acid 48 h, reagent 500 nM, 60 min, excitation 430 nm, compared with Lipi-Blue
# Protocol: (§2) Fluorescence intensity imaging and fluorescence lifetime imaging were carried out using a confocal laser microscope (IX-73; manufactured by Olympus Corporation) equipped with a confocal scanner (DCS-120; Becker & Hickl).
# Imaging of lipid droplets in cultured cells was studied by a comparative experiment on the performance between DBC30, DBC30-Bu, and DBC30-Ph, and a commercially available blue imaging reagent (Lipi-Blue). The investigated items were the luminescence intensity and the photostability.
# Each fluorescent reagent was added to a final concentration of 500 nM to HeLa cells cultured for 48 hours in the presence of 400 μM oleic acid. Culture was then performed for 60 minutes, and the cultured cells were irradiated with an excitation light (DBC30, DBC30-Bu, DBC30-Ph, Lipi-Blue: 430 nm) required for the imaging, followed by observation using a confocal laser microscope.
# [4] = Measurement of maximum absorption wavelength, maximum fluorescence wavelength and fluorescence quantum yield in solvents; format: physicochemical
# Protocol: Using a luminescent quantum yield measurement apparatus ([…]-01, manufactured by Hamamatsu Photonics K. K.), the maximum absorption wavelength (λabs/nm), the maximum fluorescence wavelength (λflu/nm), and the fluorescence quantum yield (Φf) of the compound in each solvent were measured. […] The fluorescence quantum yield was not less than 0.9 in any of the solvents.
# [5] = Measurement of fluorescence lifetime in solvents; format: physicochemical
# Protocol: The fluorescence lifetime (τf) of the compound in each solvent was measured using a compact fluorescence lifetime measurement apparatus (Quntaurus-Tau, manufactured by Hamamatsu Photonics K. K.).
# The compounds of the present invention synthesized in the above Synthesis Examples (FIG. 4; DBC30, DBC30-Bu, and DBC30-Ph) contain an 8-dibutylaminocoumarine skeleton. […] The maximum absorption wavelength was found at 401 to 412 nm, and the maximum fluorescence wavelength was found at 467 to 484 nm, which corresponds to blue fluorescence. […] The fluorescence quantum yield was not less than 0.9 in any of the solvents.
# [6] = test system: lipid droplets in HeLa cells; assay: Co-staining with BODIPY 493/503 for lipid droplet selectivity; format: cell-based; settings: 400 μM oleic acid, 100 nM, 30 min, excitation 430 nm, observation 460-500 nm
# Protocol: In order to clarify the lipid droplet selectivities of DBC30, DBC30-Bu, and DBC30-Ph, co-staining experiments were carried out with BODIPY 493/503, which is a commercially available green fluorescent lipid droplet reagent (FIGS. 8 to 10). Each fluorescent reagent was added to a final concentration of 100 nM to HeLa cells cultured for 48 hours in the presence of 400 μM oleic acid. Culture was then performed for 30 minutes, and the cultured cells were irradiated with an excitation light required for the imaging, followed by observation. For DBC30, DBC30-Bu and DBC30-Ph, the excitation wavelength was 430 nm, and the observation wavelength was 460-500 nm. For BODIPY 493/503, the excitation wavelength was 488 nm, and the observation wavelength was 510 to 560 nm.
# lipid droplets = assay: Multicolor imaging with Mito Tracker Green and Lyso Tracker Red; format: cell-based; settings: co-staining with Mito Tracker Green and Lyso Tracker Red
# Text: Mito Tracker Green (excitation wavelength, 488 nm; observation wavelength, 510 to 560 nm), which is a green fluorescent reagent showing accumulation in mitochondria, and Lyso Tracker Red (excitation wavelength, 570 nm; observation wavelength, >590 nm), which is a red fluorescent reagent showing accumulation in lysosomes, were used.
# [7] = test system: lipid droplets in the liver; assay: Fluorescence intensity and lifetime imaging of liver lipid droplets in normal and fatty-liver model mice; format: in vivo, mice (BALB/cAJcl); settings: 50 nmol, tail vein
# Protocol: as §2
# as §1, with “used. […]” for “used.”
# [8] = test system: lipid droplets in HeLa cells; assay: Photostability in cells under repeated confocal scanning; format: cell-based; settings: 400 μM oleic acid, 100 nM, 500 times of scanning, excitation 430 nm
# Protocol: Photostability is an important factor in long-term measurement for, for example, tracing the processes of formation, fusion, and degradation of lipid droplets. Each fluorescent reagent was added to a final concentration of 100 nM (DBC30, C6-OBu, or BODIPY493/503) or 2 μM (Lipi-Blue) to HeLa cells cultured for 48 hours in the presence of 400 μM oleic acid. Culture was then performed for 30 minutes, and the cultured cells were irradiated with an excitation light (DBC30, DBC30-Bu, Lipi-Blue: 430 nm; BODIPY 493/503: 488 nm) required for the imaging, followed by acquisition of imaging images using a confocal laser microscope. The photostability was evaluated by 500 times of scanning in which a set of 50 times of scanning was repeated.
# [9] = test system: adipose tissues and lipid droplets; assay: Fluorescence imaging of adipose tissues, skeletal muscle and kidney of a mouse; format: in vivo, mouse (BALB/cAJcl); settings: 50 nmol
# Protocol: as §2, §1
# In an individual, various adipose tissues and lipid droplets are present. Their imaging was carried out using DBC30. […]
# [10] = 5 mM DMSO stock added at 10% to physiological saline supplemented with 10% bovine serum albumin
# [11] = 5 mM DMSO stock added at volume ratio of 10% to physiological saline
"precipitation [2, 10]",λabs max ([4]; in Bu2O (dibutyl ether)),λflu max ([4]; in Bu2O (dibutyl ether)),φl (fluorescence quantum yield) ([4]; in Bu2O (dibutyl ether)),λabs max ([4]; in MeCN (acetonitrile)),λflu max ([4]; in MeCN (acetonitrile)),φl (fluorescence quantum yield) ([4]; in MeCN (acetonitrile)),τf (fluorescence lifetime) ([5]; in Bu2O (dibutyl ether)),τf (fluorescence lifetime) ([5]; in MeCN (acetonitrile)),SMILES,fluorescence wavelength [1],"precipitation [2, 11]",fluorescence intensity in cells [3],lipid droplet selectivity (co-staining with BODIPY 493/503) [6],use in multicolor imaging (lipid droplets),imaging of lipid droplets in liver ([7]; fatty-liver model mouse (Week 2)),imaging of lipid droplets in liver ([7]; mouse fed with a normal diet),photostability in cells [8],imaging of lipid droplets in kidney [9],"imaging of subcutaneous adipose tissue, abdominal adipose tissue, skeletal muscle and kidney [9]"
–,–,–,–,–,–,–,–,–,CC1=CC(C)=[N+]2C1=C(C)c1c(C)cc(C)n1[B-]2(F)F [BODIPY 493/503],about 500 nm,–,–,–,–,–,–,–,–,–
could be suppressed,399 nm,467 nm,0.92,412 nm,484 nm,0.92,2.29 ns,2.51 ns,CCCCN(CCCC)c1ccc2cc(-c3nc4ccccc4n3-c3ccccc3)c(=O)oc2c1 [DBC30-Ph],–,"precipitation of DBC30, DBC30-Bu, or DBC30-Ph occurs",higher fluorescence intensities than the HeLa cells to which Lipi-Blue was added,found to have lipid droplet selectivity,–,–,–,–,–,–
could be suppressed,404 nm,468 nm,0.93,410 nm,484 nm,0.90,2.29 ns,2.55 ns,CCCCN(CCCC)c1ccc2cc(-c3nc4ccccc4n3C)c(=O)oc2c1 [DBC30],–,"precipitation of DBC30, DBC30-Bu, or DBC30-Ph occurs",higher fluorescence intensities than the HeLa cells to which Lipi-Blue was added,found to have lipid droplet selectivity,can be used for multicolor imaging,large lipid droplets were imaged over the entire liver surface,small lipid droplets could be found in hepatocytes,higher photostability compared to the conventional reagents such as Lipi-Blue,small lipid droplets distributed in tubular cells could be imaged,Fluorescence derived from DBC30 was found from sites where lipid is accumulated
